According to patent publication US8017637B2, “Inhibitors of cdc phosphatases” (Ipsen Pharma S.A.S., priority 2004, dated 2011):

Experiments:
[1] = biological target: T1, purified recombinant enzyme Cdc25-C (MBP-Cdc25C) (Homo sapiens, UniProt P30307); experiment: Measurement of the phosphatase activity of the purified recombinant enzyme Cdc25C (OMFP dephosphorylation, fluorescence); assay type: biochemical; details: OMFP 500 μM, 4 hours at 30° C.
T1 construct: made in house
T1 sequence (P30307 1-473): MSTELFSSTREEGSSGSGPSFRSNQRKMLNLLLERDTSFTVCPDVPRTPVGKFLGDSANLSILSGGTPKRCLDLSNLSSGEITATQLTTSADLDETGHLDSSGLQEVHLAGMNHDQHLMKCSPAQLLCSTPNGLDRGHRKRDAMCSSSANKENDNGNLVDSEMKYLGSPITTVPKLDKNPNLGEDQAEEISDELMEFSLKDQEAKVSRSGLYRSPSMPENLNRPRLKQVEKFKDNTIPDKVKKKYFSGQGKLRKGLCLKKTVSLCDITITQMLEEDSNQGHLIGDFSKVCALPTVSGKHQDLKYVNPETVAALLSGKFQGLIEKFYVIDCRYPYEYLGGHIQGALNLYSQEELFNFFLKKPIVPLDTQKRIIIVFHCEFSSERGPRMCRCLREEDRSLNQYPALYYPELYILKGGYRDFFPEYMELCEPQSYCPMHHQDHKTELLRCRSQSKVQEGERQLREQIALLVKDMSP
Protocol: i) Measurement of the Phosphatase Activity of the Purified Recombinant Enzyme Cdc25C
The phosphatase activity of the protein MBP-Cdc25C is evaluated by the dephosphorylation of 3-O-methylfluorescein-phosphate (OMFP) to 3-O-methylfluorescein (OMF) with a determination of the fluorescence at 475 nm of the reaction product. This test makes it possible to identify inhibitors of the recombinant enzyme cdc25. The preparation of the fusion protein MBP-Cdc25C is described in the Patent Application PCT WO 01/44467.
The reaction is carried out in 384-well plate format at a final volume of 50 μl. The protein MBP-Cdc25C (prepared as described above) is preserved in the following elution buffer: 20 mM Tris-HCl pH 7.4; 250 mM NaCl; 1 mM EDTA; 1 mM of dithiothreitol (DTT); 10 mM maltose. It is diluted to a concentration of 60 μM in the following reaction buffer: 50 mM Tris-HCl pH 8.2; 50 mM NaCl; 1 mM DTT; 20% glycerol. Measurement of the background noise is carried out with the buffer without the addition of the enzyme. The products are tested at decreasing concentrations starting from 40 μM. The reaction is initiated by the addition of an OMFP solution at 500 μM final (prepared extemporaneously from a 12.5 mM stock solution in 100% DMSO (Sigma #M2629)). After 4 hours at 30° C. in a single-use 384-well plate, the fluorescence measured at OD 475 nm is read using a Victor^2 plate reader (EGG-Wallac). The determination of the concentration inhibiting the enzyme reaction by 50% is calculated from three independent experiments. Only the values contained in the linear part of the sigmoid are retained for linear regression analysis.

[2] = system: DU-145 lines (human prostate cancer cells); experiment: Anti-proliferative activity, WST1 colorimetric test, DU145 cells; assay type: cell-based; details: 96 hours treatment, up to 10 μM, read-out: IC50 on the cell proliferation of the DU-145 lines
Protocol: (§1) ii) Characterization of Anti-Proliferative Activity:
(§2) By way of example, the effect of a treatment by the compounds of the examples described previously on two lines of human Mia-Paca2 and DU145 cells will be studied. The cell lines DU145 (human prostate cancer cells) and Mia-PaCa2 (human pancreatic cancer cells) were acquired from the American Tissue Culture Collection (Rockville, Md., USA). The cells placed in 80 μl of Dulbecco's Modified Eagle medium (Gibco-Brl, Cergy-Pontoise, France) completed with 10% foetal calf serum inactivated by heating (Gibco-Brl, Cergy-Pontoise, France), 50,000 units/l of penicillin and 50 mg/l streptomycin (Gibco-Brl, Cergy-Pontoise, France), and 2 mM of glutamine (Gibco-Brl, Cergy-Pontoise, France) were seeded on a 96-well plate on day 0. The cells were treated on day 1 for 96 hours at increasing concentrations of each of the compounds to be tested up to 10 μM. At the end of the of this period, quantification of the cell proliferation is evaluated by a colorimetric test based on the cleavage of the tetrazolium salt WST1 by the mitochondrial dehydrogenases in the viable cells leading to the formation of formazan (Boehringer Mannheim, Meylan, France). These tests are carried out in duplicate with 8 determinations per concentration tested. For each compound to be tested, the values included in the linear part of the sigmoid were retained for linear regression analysis and used in order to estimate the inhibitory concentration IC50. The products are solubilized in dimethylsulphoxide (DMSO) at to 10^−2M and finally used in culture with 0.1% DMSO.

[3] = system: Mia-Paca2 lines (human pancreatic cancer cells); experiment: Anti-proliferative activity, WST1 colorimetric test, Mia-Paca2 cells; assay type: cell-based; details: MIA PaCa-2, 96 hours treatment, up to 10 μM, read-out: IC50 on the cell proliferation of the Mia-Paca2 lines
Protocol: as §1, §2

Row | Compound | IC50 [1] [µM] | melting point [°C] | IC50 [2] [µM] | IC50 [3] [µM]
1 | Cc1nc2c(s1)C(=O)C=C(NCCCN(C)CCCNC1=CC(=O)c3sc(C)nc3C1=O)C2=O [Example 1, 5.5′-[(methylimino)bis(propane-3,1-diylimino)]bis(2-methyl-1,3-benzothiazole-4,7-dione)] | ≤ 1 | 94 to 96 | ≤ 10 | ≤ 10
2 | Cc1nc2c(s1)C(=O)C=C(NCCN(C)CCNC1=CC(=O)c3sc(C)nc3C1=O)C2=O [Example 2, 5.5′-[(methylimino)bis(ethane-2,1-diylimino)]bis(2-methyl-1,3-benzothiazole-4,7-dione)] | ≤ 1 | 188 to 190 | ≤ 10 | ≤ 10
3 | Cc1nc2c(s1)C(=O)C=C(NCCOCCNC1=CC(=O)c3sc(C)nc3C1=O)C2=O [Example 3, 5.5′-[oxybis(ethane-2,1-diylimino)]bis(2-methyl-1,3-benzothiazole-4,7-dione)] | ≤ 1 |  | ≤ 10 | ≤ 10
4 | Cc1nc2c(s1)C(=O)C(NCCN(C)CCNC1=CC(=O)c3nc(C)sc3C1=O)=CC2=O [Example 6, 6.6′-[(methylimino)bis(ethane-2,1-diylimino)]bis(2-methyl-1,3-benzothiazole-4,7-dione)] | ≤ 5 |  | ≤ 10 | ≤ 10
5 | CN(CCCN(C)C1=CC(=O)c2nc(-c3cc(F)ccc3F)oc2C1=O)CCCN(C)C1=CC(=O)c2nc(-c3cc(F)ccc3F)oc2C1=O [Example 23, 6.6′-{(methylimino)bis[propane-3,1-diyl(methylimino)]}bis[2-(2,5-difluorophenyl)-1,3-benzoxazole-4,7-dione]] | ≤ 5 |  |  | 
6 | CN(CCCNC1=CC(=O)c2sc(C(=O)N3CCN(C(=O)N4CCOCC4)CC3)nc2C1=O)CCCNC1=CC(=O)c2sc(C(=O)N3CCN(C(=O)N4CCOCC4)CC3)nc2C1=O [Example 27, 5.5′-[(methylimino)bis(propane-3,1-diylimino)]bis(2-{[4-(morpholin-4-ylcarbonyl)piperazin-1-yl]carbonyl}-1,3-benzothiazole-4,7-dione)] | ≤ 1 | 157 to 158 |  | ≤ 10
7 | CN(CCCNC1=CC(=O)c2sc(C(=O)N3CCN(C(=O)C4CCCO4)CC3)nc2C1=O)CCCNC1=CC(=O)c2sc(C(=O)N3CCN(C(=O)C4CCCO4)CC3)nc2C1=O (stereo not shown) [Example 28, 5.5′-[(methylimino)bis(propane-3,1-diylimino)]bis(2-{[4-(tetrahydrofuran-2-ylcarbonyl)piperazin-1-yl]carbonyl}-1,3-benzothiazole-4,7-dione)] | ≤ 1 | 152 to 153 |  | ≤ 10
8 | COc1ccc(CNC(=O)c2nc3c(s2)C(=O)C=C(NCCCN(C)CCCNC2=CC(=O)c4sc(C)nc4C2=O)C3=O)cc1 [Example 45, N-(4-methoxybenzyl)-5-{[3-(methyl{3-[(2-methyl-4,7-dioxo-4,7-dihydro-1,3-benzothiazol-5-yl)amino]propyl}amino)propyl]amino}-4,7-dioxo-4,7-dihydro-1,3-benzothiazole-2-carboxamide] | ≤ 1 |  | ≤ 10 | ≤ 10
9 | COc1ccc2c(c1)CCCN2C(=O)c1nc2c(s1)C(=O)C=C(NCCCN(C)CCCNC1=CC(=O)c3sc(C)nc3C1=O)C2=O [Example 47, 2-[(6-methoxy-3,4-dihydroquinolin-1(2H)-yl)carbonyl]-5-{[3-(methyl{3-[(2-methyl-4,7-dioxo-4,7-dihydro-1,3-benzothiazol-5-yl)amino]propyl}amino)propyl]amino}-1,3-benzothiazole-4,7-dione] | ≤ 1 |  |  | 
10 | COc1ccc(C(=O)N2CCN(C(=O)c3nc4c(s3)C(=O)C=C(NCCCN(C)CCCNC3=CC(=O)c5sc(C)nc5C3=O)C4=O)CC2)cc1 [Example 48, 2-{[4-(4-methoxybenzoyl)piperazin-1-yl]carbonyl}-5-{[3-(methyl{3-[(2-methyl-4,7-dioxo-4,7-dihydro-1,3-benzothiazol-5-yl)amino]propyl}amino)propyl]amino}-1,3-benzothiazole-4,7-dione] | ≤ 1 |  | ≤ 10 | ≤ 10

Second part, the compound after the results:

Row | IC50 [1] [µM] | melting point [°C] | IC50 [2] [µM] | IC50 [3] [µM] | Compound
11 | ≤ 1 |  | ≤ 10 | ≤ 10 | Cc1nc2c(s1)C(=O)C=C(NCCCCCNC1=CC(=O)c3sc(C)nc3C1=O)C2=O [Example 4]
12 | ≤ 1 | 91 to 93 | ≤ 10 | ≤ 10 | Cc1nc2c(s1)C(=O)C(NCCCN(C)CCCNC1=CC(=O)c3nc(C)sc3C1=O)=CC2=O [Example 5, 6.6′-[(methylimino)bis(propane-3,1-diylimino)]bis(2-methyl-1,3-benzothiazole-4,7-dione)]
13 | ≤ 1 |  | ≤ 10 | ≤ 10 | Cc1nc2c(s1)C(=O)C(Br)=C(NCCCN(C)CCCNC1=C(Br)C(=O)c3sc(C)nc3C1=O)C2=O [Example 17, 5.5′-[(methylimino)bis(propane-3,1-diylimino)]bis(6-bromo-2-methyl-1,3-benzothiazole-4,7-dione)]
14 | ≤ 1 |  | ≤ 10 | ≤ 10 | Cc1nc2c(s1)C(=O)C=C(NCCCN(C)CCCNC1=CC(=O)c3nc(C(=O)N4CCCC4)sc3C1=O)C2=O [Example 44, 5-({3-[(3-{[4,7-dioxo-2-(pyrrolidin-1-ylcarbonyl)-4,7-dihydro-1,3-benzothiazol-6-yl]amino}propyl)(methyl)amino]propyl}amino)-2-methyl-1,3-benzothiazole-4,7-dione]
15 | ≤ 1 |  | ≤ 10 | ≤ 10 | Cc1nc2c(s1)C(=O)C=C(NCCCN(C)CCCNC1=CC(=O)c3scnc3C1=O)C2=O [Example 50, 5-({3-[{3-[(4,7-dioxo-4,7-dihydro-1,3-benzothiazol-5-yl)amino]propyl}(methyl)amino]propyl}amino)-2-methyl-1,3-benzothiazole-4,7-dione]
16 | ≤ 1 |  |  | ≤ 10 | Cc1nc2c(s1)C(=O)C=C(NCCCN(C)CCCNC1=CC(=O)c3nc(-c4cc(F)ccc4F)oc3C1=O)C2=O [Example 51, 2-(2,5-difluorophenyl)-6-{[3-(methyl{3-[(2-methyl-4,7-dioxo-4,7-dihydro-1,3-benzothiazol-5-yl)amino]propyl}amino)propyl]amino}-1,3-benzoxazole-4,7-dione]
17 | ≤ 1 |  | ≤ 10 | ≤ 10 | Cc1nc2c(s1)C(=O)C(NCCCN(C)CCCNC1=CC(=O)c3nc(-c4cc(F)ccc4F)oc3C1=O)=CC2=O [Example 53, 2-(2,5-difluorophenyl)-6-{[3-(methyl{3-[(2-methyl-4,7-dioxo-4,7-dihydro-1,3-benzothiazol-6-yl)amino]propyl}amino)propyl]amino}-1,3-benzoxazole-4,7-dione]
